Test results: US20240226059A1, “COMPOSITION FOR INHIBITING ANGIOGENESIS AND ENHANCING THERAPEUTIC EFFECT OF ANTICANCER DRUGS IN CANCER PATIENT” (KANT SCIENCE INC., priority 2020, published 2024)
“Also recorded” adds a separate entry of the source.

Assays:
Assay type in all cases: cell-based
Breast cancer cells [1] = assay: Intracellular acidity (pH) of breast cancer cells at normal or low glucose; conditions: low-carbohydrate state (glucose 5 nM), in combination with paclitaxel (PTX); FIG. 1, FIG. 2
Description: Breast cancer cells were cultured at a normal glucose (GLU) concentration of […] or a low concentration of […], and intracellular acidity was confirmed with or without the treatment of paclitaxel (PTX), which is an anticancer drug, and cariporide (CAR), which is a drug that regulates intracellular acidity.

Breast cancer cells [2] = assay: Cell viability of breast cancer cells at normal or low glucose; conditions: low-carbohydrate state (glucose 5 nM), in combination with paclitaxel (PTX); FIG. 3
Description: Breast cancer cells were cultured at a normal glucose (GLU) concentration of […] or a low concentration of […], and cell viability was confirmed with and without the treatment of paclitaxel (PTX), which is an anticancer drug, and cariporide (CAR) or curcumin (CUR).

colorectal cancer cells = assay: Anticancer drug resistance (GR50 ratio) of colorectal cancer cells at high or low glucose; conditions: low glucose (5 nM), in combination with irinotecan; FIG. 4
Description: Furthermore, colorectal cancer cells were cultured at a high glucose concentration ([…]) or a low glucose concentration ([…]), and it was confirmed by a growth rate 50 ratio (GR50 ratio) while treating irinotecan, which is an anticancer drug, and cariporide in combination whether the cancer cells had anticancer drug resistance.

Compound | intracellular acidity (Breast cancer cells [1]) | anticancer effect (cell viability) (Breast cancer cells [2]) | anticancer drug resistance (growth rate 50 ratio, GR50 ratio) (colorectal cancer cells) | cell viability (colorectal cancer cells)
COc1cc(/C=C/C(=O)CC(=O)/C=C/c2ccc(O)c(OC)c2)ccc1O [curcumin] | same effect as cariporide; also recorded: closest to normal | best anticancer effect | – | –
CC(C)c1ccc(C(=O)NC(=N)N)cc1S(C)(=O)=O [cariporide] | maintained normal pH; also recorded: closest to normal | best anticancer effect | overcome anticancer drug resistance | significantly reduce cell viability
